Measurements as given in US4898867A, “Thienopyrimidine derivaties as aldose-reductase inhibitors” (Taiho Pharmaceutical Company, Limited, priority 1987, dated 1990).
Counter-ions that a name gives are not always drawn.

Target: T1, aldose-reductase (AR) (Rattus norvegicus, UniProt P07943)
T1 construct: The supernatant obtained was used as AR; from tissue; host or cells: lenses of male Wistar rats (10000 rpm supernatant of homogenate)
Experiment: Aldose-reductase inhibitory activity (decrease in absorbance of NADPH at 340 nm, glyceraldehyde substrate)
Type: biochemical, Wister male rats (lenses)
Details: rat lens AR supernatant, 0.1M phosphate buffer pH 6.2, 30° C.
Experimental: The aldose-reductase (AR) activity was evaluated by determining spectrophotometrically the decrease in absorbance of NADPH at 340 nm due to the reduction of the substrate, i.e., glyceraldehyde according to the method described in Biochemical Pharmacology 25, pp 2505-2513 (1976).
The lenses of Wister male rats was homogenized with 0.5 ml of 0.1M phosphate buffer (pH 6.2) per lens by a glass homogenizer and the homogenate was centrifuged at 10000 rpm for 10 minutes. The supernatant obtained was used as AR.
The determination of the AR activity was conducted as follows. A 700 μl quantity of 0.1M phosphate buffer (pH 6.2), 100 μl of 2.21 mM NADPH, 100 μl of AR and 5 μl of DMSO containing each of test compounds in varying concentrations were placed in a cell for test sample, and 800 μl of 0.1M phosphate buffer (pH 6.2), 100 μl of 2.21 mM NADPH, 100 μl of AR and 5 μl of DMSO were placed in a cell for control. Then the solutions in the cells were thoroughly mixed together and the mixtures were maintained at 30° C. Then 100 μl of 100 mM glyceraldehyde maintained at 30° C. was added to a cell for test sample and quickly blended to initiate the reaction. The AR activity was determined from the rate of change of absorbance per minute in the linear part of variations of absorbance during a period of from 1 minute to three minutes after the start of the reaction, and a dose-response curve was drawn.

| IC50 | SMILES |
| --- | --- |
| 21 nM | Cc1sc2c(c1C)c(=O)n(Cc1ccc(Br)cc1F)c(=O)n2CC(=O)O [Compound I-14] |
| 30 nM | Cc1csc2c1c(=O)n(Cc1ccc(Cl)c(Cl)c1)c(=O)n2CC(=O)O [Compound I-5] |
| 25 nM | Cc1c(Cl)sc2c1c(=O)n(Cc1ccc(Cl)c(Cl)c1)c(=O)n2CC(=O)O [Compound I-11] |
| 75 nM | Cc1sc2c(c1C)c(=O)n(Cc1ccc(Cl)cc1)c(=O)n2CC(=O)O [Compound I-1, 1-carboxymethyl-3-(4-chlorobenzyl)-5,6-dimethylthieno[2,3-d]pyrimidin-2,4(1H, 3H)-dione] |
| 26 nM | CC(C)c1cc2c(=O)n(Cc3ccc(Cl)c(Cl)c3)c(=O)n(CC(=O)O)c2s1 [Compound I-3] |
| 26 nM | Cc1c(Br)sc2c1c(=O)n(Cc1ccc(Cl)c(Cl)c1)c(=O)n2CC(=O)O [Compound I-10] |
| 20 nM | Cc1sc2c(c1C)c(=O)n(Cc1ccc(Cl)cc1Cl)c(=O)n2CC(=O)O [Compound I-2] |

Second part, the compound before the results:

| SMILES | IC50 |
| --- | --- |
| O=C(O)Cn1c(=O)n(Cc2ccc(Br)cc2F)c(=O)c2cc(C3CCCC3)sc21 [Compound I-16] | 30 nM |
| O=C(O)Cn1c(=O)n(Cc2ccc(Cl)cc2Cl)c(=O)c2c3c(sc21)CCCC3 [Compound I-8] | 42 nM |
| CC(C)c1cc2c(=O)n(Cc3ccc(Cl)cc3Cl)c(=O)n(CC(=O)O)c2s1 [Compound I-4] | 17 nM |
| O=C(O)Cn1c(=O)n(Cc2ccc(Br)cc2F)c(=O)c2ccsc21 [Compound I-19] | 20 nM |
| O=C(O)Cn1c(=O)n(Cc2ccc(Br)cc2F)c(=O)c2c3c(sc21)CCCC3 [Compound I-15] | 23 nM |
| CC(C)c1cc2c(=O)n(Cc3ccc(Br)cc3F)c(=O)n(CC(=O)O)c2s1 [Compound I-17] | 22 nM |
| O=C(O)Cn1c(=O)n(Cc2ccc(Br)cc2F)c(=O)c2cc(-c3ccccc3)sc21 [Compound I-13] | 34 nM |
| Cc1csc2c1c(=O)n(Cc1ccc(Br)cc1F)c(=O)n2CC(=O)O [Compound I-20, 1-carboxymethyl-3-(4-bromo-2-fluorobenzyl)-5-methylthieno[2,3-d]pyrimidin-2,4(1H, 3H)-dione] | 24 nM |
| O=C(O)Cn1c(=O)n(Cc2ccc(Br)cc2F)c(=O)c2cc(Cl)sc21 [I-24 (Lysine salt)] | 25 nM |
